Test system: leukocyte cell lines
Assay: Cytotoxicity to leukocyte cell lines (similar procedures)
Format: cell-based
Settings: not given
Experimental: Cytotoxicity assays. WI-L2 human B-lymphocyte line, HAAE-1 human abdominal aortic endothelial line, MH-S murine alveolar macrophage line, and J774A.1 murine tissue macrophage line were obtained from the ATCC. Human aortic endothelial cells (HAEC) and human vascular smooth muscle cells (VSMS) were obtained from Cambrex Bio Science. Jurkat E6-1T-lymphocytes were kindly provided by Dr. J. Kaye (The Scripps Research Institute). Cells were cultured in ATCC-recommended media with 10% fetal calf serum. Cells were incubated in a controlled atmosphere at 37° C., with 5 or 7% CO2. For lactate dehydrogenase (LDH) release assays, adherent cells were harvested either by addition of 0.05% trypsin/EDTA or by scraping. The cells obtained were seeded onto 96-well microtiter plates (25,000 cells/well) and allowed to recover for 24-48 h. Cells were washed gently and media replaced with fresh media containing 5% fetal calf serum. […] Cytotoxicity was then determined by measuring lactate dehydrogenase (LDH) release from cells in culture. […] 100% Cytotoxicity was defined as the maximum amount of LDH released by dead cells as shown by trypan blue exclusion, or the highest amount of LDH detected upon lysis of cells by 0.9% Triton X-100. The IC50 values were determined by comparison of the raw duplicate data for concentration versus cytotoxicity (%) to non-linear regression analysis (Hill plot) using Graphpad v3.0 software for Macintosh.

| SMILES | cytotoxicity to leukocyte cell lines |
| --- | --- |
| CC(C)CCC[C@@H](C)[C@H]1CCC2[C@H](CC(=O)O)C([C@@]3(C)CC[C@H](O)CC3=O)CC[C@@]21C (stereo partly shown) [10a] | cytotoxic |
| CC(C)CCC[C@@H](C)[C@H]1CCC2C3C(C=O)=C4C=CCC[C@]4(C)C3CC[C@@]21C (stereo partly shown) [12a, B-norcholest-3,5-diene-6-carboxaldehyde] | cytotoxic |
| CC(C)CCC[C@@H](C)[C@H]1CCC2C(CC=O)C([C@@]3(C)CCC=CC3=O)CC[C@@]21C (stereo partly shown) [6a, 5-Oxo-5,6-secocholest-3-en-6-al] | cytotoxic |
| CC(C)CCC[C@@H](C)[C@H]1CCC2[C@H](CC=O)C([C@@]3(C)CCCCC(=O)O3)CC[C@@]21C (stereo partly shown) [11a] | cytotoxic |
| CC(C)CCC[C@@H](C)[C@H]1CCC2C3C(CC[C@@]21C)[C@@]1(C)CCC=C[C@@]1(O)[C@@H]3CO (stereo partly shown) [7c] | cytotoxic |
| CC(C)CCC[C@@H](C)[C@H]1CCC2C3C(CC[C@@]21C)[C@@]1(C)CCC=C[C@@]1(O)[C@@H]3C=O (stereo partly drawn) [7a, 5β-Hydroxy-B-norcholest-3-ene-6β-carboxaldehyde] | cytotoxic |

Test system: THP-1 monocytes
Assay: Monocyte morphology changes (differentiation into macrophages)
Format: cell-based, human
Settings: 12.5 or 25 μM, up to 7 days
Experimental: THP-1 monocytes in suspension were plated in 8-well chambered slides. […] Media containing appropriate treatment compounds was replaced after 4 days. After 4 days treatment, morphologic changes of the adherent cells were assessed by phase-contrast microscopy and photographed using an Olympus Microfire digital camera.

| SMILES | THP-1 monocyte differentiation into macrophages (adherence, morphology) |
| --- | --- |
| CC(C)CCC[C@@H](C)[C@H]1CC[C@H]2[C@@H]3C(=O)C=C4C[C@@H](O)CC[C@]4(C)[C@H]3CC[C@]12C [7-KC, 7-ketocholesterol, reference compound] | began to adhere after 4 days |
